According to patent publication US20090018136A1, “METHODS AND COMPOSITIONS FOR THE TREATMENT OF VASCULAR DISEASE” (priority 2005, published 2009):

Assays:
beagles = settings: dog, in vivo, po, 100 mg/kg
Procedure: This study evaluated the cardiovascular effects of high doses of 6R-BH4 in combination with the PDE5 inhibitor sildenafil citrate in vivo. Eight male research nonnaïve and naïve purebred beagles were dosed in a double Latin square crossover design as described in the following table. All animals were dosed by oral gavage. Test articles were administered at a dose volume of 5 mL/kg (for a total volume of 10 mL/kg for the combination dose); control animals were dosed at a dose volume of 10 mL/kg. 6R-BH4 (sapropterin dihydrochloride) provided as 300 mg tablets (100 mg active 6R-BH4/tablet) stored at room temperature with desiccant.
At initiation of treatment, the animals were approximately 7 to 10 months old, and their body weights prior to dosing ranged from 7.8 to 12.0 kg.
At least 2 weeks prior to initiation of treatment, animals were fasted overnight, anesthetized, and an electrocardiogram (ECG) and blood pressure transmitter were implanted into the abdomen and sutured to the abdominal wall. The blood pressure catheter was placed in an artery and advanced to the abdominal aorta. Animals were checked twice daily (a.m. and p.m.) for mortality, abnormalities, and signs of pain and distress. Additional findings were recorded as observed.
Detailed observations were taken three times during the predose phase (including the day before dosing) and on Days 3 and 10 of the dosing phase. For each dosing day, ECG and pressure measurements were recorded for at least 90 minutes prior to dosing, continuously for at least 8 hours after dosing, and then for one period of at least 15 minutes in duration each hour through at least 24 hours postdose. Blood pressure measurements included systolic, diastolic, and mean arterial pressures and pulse pressure (systolic-diastolic). […]
Quantitative evaluation of ECG measurements, including RR interval, QT, and rate-corrected QT (QTc, using Fridericia's method), were done.
Positive inotropic effects (+dP/dtmax) and heart rate were calculated from a left ventricular pressure signal predose and approximately 2, 4, 8, 12, and 24 hours postdose. […]

brachial artery = test: Study 1: brachial artery flow-mediated and nitroglycerin-mediated vasodilation by ultrasound; assay type: in vivo, human
Procedure: The technique was carried out as described in Prasad et al., Circulation, 2000. 101(20): p. 2349-54. Briefly, using an 11 MHz high resolution ultrasound transducer (Acuson Inc) in a temperature-controlled room, brachial diameter was measured above the antecubital fossa in the non-dominant arm. Flow-mediated vasodilation (FMD) was measured by inflating a BP cuff on the forearm to >200 mm Hg for 5 minutes, deflating rapidly, and measuring brachial diameter at 1 minute after onset of hyperemia. For all measurements three diameters were measured on three separate end-diastolic frames and averaged. To obtain the maximal brachial artery dilation that represents FMD the following equation was used: (average diameter with hyperemia−average baseline diameter)÷average baseline diameter X 100. To measure the endothelium-independent vasodilator response, subjects were given sublingual nitroglycerin 0.4 mg and the brachial diameter was measured as above after 5 minutes. To obtain endothelium-independent vasodilation the following equation was used: (average diameter post nitroglycerin-average baseline diameter)÷average baseline diameter X 100. For both study 1 and study 2, the primary end point after statistical analysis was a reduction of systolic, mean and diastolic BP during BH4 therapy. Secondary end points included improvement of endothelial function as FMD. Linear mixed effects models for repeated measures data were used to analyze change in BP from baseline to end of treatment period and differences in change between 100 mg and 200 mg dose groups. A quadratic term for week was included in the model to account for non-linear trends over the treatment period. Dose, week and week squared were the main effect terms in the model; dose by week and dose by week squared were the interaction terms in the model. Significant interaction terms indicate a difference in the pattern of change between the two dose groups. FMD data was analyzed using the two-tailed student t-test.

With `C[C@H](O)[C@H](O)[C@H]1CNc2nc(N)[nH]c(=O)c2N1` [BH4, tetrahydrobiopterin] the “effect on any of the cardiovascular parameters measured” value (beagles) was “No effect”, the “Flow-mediated vasodilation of the brachial artery” value (brachial artery; Study 1, 6 weeks after termination of therapy, p=ns compared to baseline) was 3.7±1.3% and the “Flow-mediated vasodilation of the brachial artery” value (brachial artery; Study 1, after 8 weeks of BH4, baseline mean 3.4±1%, p=0.05, n=6) was 8.2±3.4%. For the same molecule, the Nitroglycerin-mediated vasodilation (brachial artery; Study 1, after BH4, 11.9±3% before, p=0.1, remained unchanged) was 16.1±5%.
